{"source": "ChEMBL document CHEMBL3045929", "about": "“Design, synthesis, and evaluation of novel indomethacinantioxidant codrugs as gastrosparing NSAIDs” (2012)", "key": {"Rattus norvegicus [1]": {"tested_on": "Rattus norvegicus", "experiment": "Anti-inflammatory activity in Rattus norvegicus Sprague-Dawley (rat) assessed as increase in carrageenan-induced paw edema at 16 mg/kg, po measured at 2 hr by plethysmometer (reference value: 64.73 +/- 0.72 %)", "assay_type": "functional"}, "Rattus norvegicus [2]": {"tested_on": "Rattus norvegicus", "experiment": "Antiulcerogenic activity in fasted Rattus norvegicus Sprague-Dawley (rat) stomach assessed as ulcer index at 67.1 mg/kg, po after 8 hr (reference value: 0.23 +/- 0.09)", "assay_type": "functional"}, "Rattus norvegicus [3]": {"tested_on": "Rattus norvegicus", "experiment": "Anti-inflammatory activity in Rattus norvegicus Sprague-Dawley (rat) assessed as increase in carrageenan-induced paw edema at 16 mg/kg, po measured at 4 hr by plethysmometer (reference value: 81.58 +/- 0.63 %)", "assay_type": "functional"}, "Mus musculus [4]": {"tested_on": "Mus musculus", "experiment": "Analgesic activity in Mus musculus (mouse) assessed as inhibition of acetic acid-induced abdominal writhing at 13.96 mg/kg, po measured for 20 min relative to vehicle-treated control", "details": "Abdomen"}, "Rattus norvegicus [5]": {"tested_on": "Rattus norvegicus", "experiment": "Anti-inflammatory activity in Rattus norvegicus Sprague-Dawley (rat) assessed as increase in carrageenan-induced paw edema at 16.6 mg/kg, po measured at 4 hr by plethysmometer (reference value: 81.58 +/- 0.63 %)", "assay_type": "functional"}, "Mus musculus [6]": {"tested_on": "Mus musculus", "experiment": "Analgesic activity in Mus musculus (mouse) assessed as inhibition of acetic acid-induced abdominal writhing at 13.9 mg/kg, po measured for 20 min relative to vehicle-treated control", "details": "Abdomen"}, "Rattus norvegicus [7]": {"tested_on": "Rattus norvegicus", "experiment": "Antiulcerogenic activity in fasted Rattus norvegicus Sprague-Dawley (rat) stomach assessed as ulcer index at 66.5 mg/kg, po after 8 hr (reference value: 0.23 +/- 0.09)", "assay_type": "functional"}, "Rattus norvegicus [8]": {"tested_on": "Rattus norvegicus", "experiment": "Anti-inflammatory activity in Rattus norvegicus Sprague-Dawley (rat) assessed as increase in carrageenan-induced paw edema at 16.6 mg/kg, po measured at 2 hr by plethysmometer (reference value: 64.73 +/- 0.72 %)", "assay_type": "functional"}, "Rattus norvegicus [9]": {"tested_on": "Rattus norvegicus", "experiment": "Anti-inflammatory activity in Rattus norvegicus Sprague-Dawley (rat) assessed as increase in carrageenan-induced paw edema at 16.9 mg/kg, po measured at 2 hr by plethysmometer (reference value: 64.73 +/- 0.72 %)", "assay_type": "functional"}, "Rattus norvegicus [10]": {"tested_on": "Rattus norvegicus", "experiment": "Antiulcerogenic activity in fasted Rattus norvegicus Sprague-Dawley (rat) stomach assessed as ulcer index at 67.6 mg/kg, po after 8 hr (reference value: 0.23 +/- 0.09)", "assay_type": "functional"}, "Rattus norvegicus [11]": {"tested_on": "Rattus norvegicus", "experiment": "Anti-inflammatory activity in Rattus norvegicus Sprague-Dawley (rat) assessed as increase in carrageenan-induced paw edema at 16.9 mg/kg, po measured at 4 hr by plethysmometer (reference value: 81.58 +/- 0.63 %)", "assay_type": "functional"}, "Mus musculus [12]": {"tested_on": "Mus musculus", "experiment": "Analgesic activity in Mus musculus (mouse) assessed as inhibition of acetic acid-induced abdominal writhing at 14.08 mg/kg, po measured for 20 min relative to vehicle-treated control", "details": "Abdomen"}, "Mus musculus [13]": {"tested_on": "Mus musculus", "experiment": "Analgesic activity in Mus musculus (mouse) assessed as inhibition of acetic acid-induced abdominal writhing at 10 mg/kg, po measured for 20 min relative to vehicle-treated control", "details": "Abdomen"}, "Rattus norvegicus [14]": {"tested_on": "Rattus norvegicus", "experiment": "Antiulcerogenic activity in fasted Rattus norvegicus Sprague-Dawley (rat) stomach assessed as ulcer index at 48 mg/kg, po after 8 hr (reference value: 0.23 +/- 0.09)", "assay_type": "functional"}, "Rattus norvegicus [15]": {"tested_on": "Rattus norvegicus", "experiment": "Anti-inflammatory activity in Rattus norvegicus Sprague-Dawley (rat) assessed as increase in carrageenan-induced paw edema at 12 mg/kg, po measured at 4 hr by plethysmometer (reference value: 81.58 +/- 0.63 %)", "assay_type": "functional"}, "Rattus norvegicus [16]": {"tested_on": "Rattus norvegicus", "experiment": "Anti-inflammatory activity in Rattus norvegicus Sprague-Dawley (rat) assessed as increase in carrageenan-induced paw edema at 12 mg/kg, po measured at 2 hr by plethysmometer (reference value: 64.73 +/- 0.72 %)", "assay_type": "functional"}, "Rattus norvegicus [17]": {"tested_on": "Rattus norvegicus", "experiment": "Antiulcerogenic activity in fasted Rattus norvegicus Sprague-Dawley (rat) stomach assessed as ulcer index at 62.2 mg/kg, po after 8 hr (reference value: 0.23 +/- 0.09)", "assay_type": "functional"}, "Mus musculus [18]": {"tested_on": "Mus musculus", "experiment": "Analgesic activity in Mus musculus (mouse) assessed as inhibition of acetic acid-induced abdominal writhing at 12.9 mg/kg, po measured for 20 min relative to vehicle-treated control", "details": "Abdomen"}, "Rattus norvegicus [19]": {"tested_on": "Rattus norvegicus", "experiment": "Anti-inflammatory activity in Rattus norvegicus Sprague-Dawley (rat) assessed as increase in carrageenan-induced paw edema at 15.6 mg/kg, po measured at 4 hr by plethysmometer (reference value: 81.58 +/- 0.63 %)", "assay_type": "functional"}, "Rattus norvegicus [20]": {"tested_on": "Rattus norvegicus", "experiment": "Anti-inflammatory activity in Rattus norvegicus Sprague-Dawley (rat) assessed as increase in carrageenan-induced paw edema at 15.6 mg/kg, po measured at 2 hr by plethysmometer (reference value: 64.73 +/- 0.72 %)", "assay_type": "functional"}, "Rattus norvegicus [21]": {"tested_on": "Rattus norvegicus", "experiment": "Anti-inflammatory activity in Rattus norvegicus Sprague-Dawley (rat) assessed as increase in carrageenan-induced paw edema at 16.4 mg/kg, po measured at 4 hr by plethysmometer (reference value: 81.58 +/- 0.63 %)", "assay_type": "functional"}, "Rattus norvegicus [22]": {"tested_on": "Rattus norvegicus", "experiment": "Antiulcerogenic activity in fasted Rattus norvegicus Sprague-Dawley (rat) stomach assessed as ulcer index at 65.7 mg/kg, po after 8 hr (reference value: 0.23 +/- 0.09)", "assay_type": "functional"}, "Rattus norvegicus [23]": {"tested_on": "Rattus norvegicus", "experiment": "Anti-inflammatory activity in Rattus norvegicus Sprague-Dawley (rat) assessed as increase in carrageenan-induced paw edema at 16.4 mg/kg, po measured at 2 hr by plethysmometer (reference value: 64.73 +/- 0.72 %)", "assay_type": "functional"}, "Mus musculus [24]": {"tested_on": "Mus musculus", "experiment": "Analgesic activity in Mus musculus (mouse) assessed as inhibition of acetic acid-induced abdominal writhing at 13.69 mg/kg, po measured for 20 min relative to vehicle-treated control", "details": "Abdomen"}, "Mus musculus [25]": {"tested_on": "Mus musculus", "experiment": "Analgesic activity in Mus musculus (mouse) assessed as inhibition of acetic acid-induced abdominal writhing at 13.75 mg/kg, po measured for 20 min relative to vehicle-treated control", "details": "Abdomen"}, "Rattus norvegicus [26]": {"tested_on": "Rattus norvegicus", "experiment": "Antiulcerogenic activity in fasted Rattus norvegicus Sprague-Dawley (rat) stomach assessed as ulcer index at 66 mg/kg, po after 8 hr (reference value: 0.23 +/- 0.09)", "assay_type": "functional"}, "Rattus norvegicus [27]": {"tested_on": "Rattus norvegicus", "experiment": "Anti-inflammatory activity in Rattus norvegicus Sprague-Dawley (rat) assessed as increase in carrageenan-induced paw edema at 16.5 mg/kg, po measured at 2 hr by plethysmometer (reference value: 64.73 +/- 0.72 %)", "assay_type": "functional"}, "Rattus norvegicus [28]": {"tested_on": "Rattus norvegicus", "experiment": "Anti-inflammatory activity in Rattus norvegicus Sprague-Dawley (rat) assessed as increase in carrageenan-induced paw edema at 16.5 mg/kg, po measured at 4 hr by plethysmometer (reference value: 81.58 +/- 0.63 %)", "assay_type": "functional"}, "Rattus norvegicus [29]": {"tested_on": "Rattus norvegicus", "experiment": "Anti-inflammatory activity in Rattus norvegicus Sprague-Dawley (rat) assessed as increase in carrageenan-induced paw edema at 16.8 mg/kg, po measured at 4 hr by plethysmometer (reference value: 81.58 +/- 0.63 %)", "assay_type": "functional"}, "Rattus norvegicus [30]": {"tested_on": "Rattus norvegicus", "experiment": "Antiulcerogenic activity in fasted Rattus norvegicus Sprague-Dawley (rat) stomach assessed as ulcer index at 64.1 mg/kg, po after 8 hr (reference value: 0.23 +/- 0.09)", "assay_type": "functional"}, "Rattus norvegicus [31]": {"tested_on": "Rattus norvegicus", "experiment": "Anti-inflammatory activity in Rattus norvegicus Sprague-Dawley (rat) assessed as increase in carrageenan-induced paw edema at 16.8 mg/kg, po measured at 2 hr by plethysmometer (reference value: 64.73 +/- 0.72 %)", "assay_type": "functional"}, "Mus musculus [32]": {"tested_on": "Mus musculus", "experiment": "Analgesic activity in Mus musculus (mouse) assessed as inhibition of acetic acid-induced abdominal writhing at 13.35 mg/kg, po measured for 20 min relative to vehicle-treated control", "details": "Abdomen"}}, "data": [{"molecule": "COc1ccc2c(c1)c(CC(=O)Oc1ccc3c(c1)OCO3)c(C)n2C(=O)c1ccc(Cl)cc1", "values": [{"measurement": "Activity", "setting": "Rattus norvegicus [1]", "result": 43.17, "unit": "%"}, {"measurement": "UI", "setting": "Rattus norvegicus [2]", "result": 0.79}, {"measurement": "Activity", "setting": "Rattus norvegicus [3]", "result": 44.52, "unit": "%"}, {"measurement": "inhibition in vivo at 13.96 mg/kg", "setting": "Mus musculus [4]", "result": 86, "unit": "%"}]}, {"molecule": "COc1ccc2c(c1)c(CC(=O)O[C@@H]1C[C@H](C)CC[C@H]1C(C)C)c(C)n2C(=O)c1ccc(Cl)cc1", "values": [{"measurement": "Activity", "setting": "Rattus norvegicus [5]", "result": 55.54, "unit": "%"}, {"measurement": "inhibition in vivo at 13.9 mg/kg", "setting": "Mus musculus [6]", "result": 73.9, "unit": "%"}, {"measurement": "UI", "setting": "Rattus norvegicus [7]", "result": 1.41}, {"measurement": "Activity", "setting": "Rattus norvegicus [8]", "result": 52.01, "unit": "%"}]}, {"molecule": "C=CCc1ccc(OC(=O)Cc2c(C)n(C(=O)c3ccc(Cl)cc3)c3ccc(OC)cc23)c(OC)c1", "values": [{"measurement": "Activity", "setting": "Rattus norvegicus [9]", "result": 44.33, "unit": "%"}, {"measurement": "UI", "setting": "Rattus norvegicus [10]", "result": 0.93}, {"measurement": "Activity", "setting": "Rattus norvegicus [11]", "result": 45.39, "unit": "%"}, {"measurement": "inhibition in vivo at 14.08 mg/kg", "setting": "Mus musculus [12]", "result": 84.8, "unit": "%"}]}, {"molecule": "COc1ccc2c(c1)c(CC(=O)O)c(C)n2C(=O)c1ccc(Cl)cc1", "note": "[INDOMETHACIN]", "values": [{"measurement": "inhibition in vivo at 10 mg/kg", "setting": "Mus musculus [13]", "result": 74.9, "unit": "%"}, {"measurement": "UI", "setting": "Rattus norvegicus [14]", "result": 5.54}, {"measurement": "Activity", "setting": "Rattus norvegicus [15]", "result": 57.39, "unit": "%"}, {"measurement": "Activity", "setting": "Rattus norvegicus [16]", "result": 48.35, "unit": "%"}]}, {"molecule": "COc1ccc2c(c1)c(CC(=O)Oc1ccccc1OC)c(C)n2C(=O)c1ccc(Cl)cc1", "values": [{"measurement": "UI", "setting": "Rattus norvegicus [17]", "result": 1.15}, {"measurement": "inhibition in vivo at 12.9 mg/kg", "setting": "Mus musculus [18]", "result": 78.7, "unit": "%"}, {"measurement": "Activity", "setting": "Rattus norvegicus [19]", "result": 48.21, "unit": "%"}, {"measurement": "Activity", "setting": "Rattus norvegicus [20]", "result": 46.89, "unit": "%"}]}, {"molecule": "COc1ccc2c(c1)c(CC(=O)Oc1cc(C)ccc1C(C)C)c(C)n2C(=O)c1ccc(Cl)cc1", "values": [{"measurement": "Activity", "setting": "Rattus norvegicus [21]", "result": 54.61, "unit": "%"}, {"measurement": "UI", "setting": "Rattus norvegicus [22]", "result": 1.37}, {"measurement": "Activity", "setting": "Rattus norvegicus [23]", "result": 50.25, "unit": "%"}, {"measurement": "inhibition in vivo at 13.69 mg/kg", "setting": "Mus musculus [24]", "result": 73.2, "unit": "%"}]}, {"molecule": "COc1ccc2c(c1)c(CC(=O)Oc1ccc(C=O)cc1OC)c(C)n2C(=O)c1ccc(Cl)cc1", "values": [{"measurement": "inhibition in vivo at 13.75 mg/kg", "setting": "Mus musculus [25]", "result": 81.5, "unit": "%"}, {"measurement": "UI", "setting": "Rattus norvegicus [26]", "result": 1.23}, {"measurement": "Activity", "setting": "Rattus norvegicus [27]", "result": 47.13, "unit": "%"}, {"measurement": "Activity", "setting": "Rattus norvegicus [28]", "result": 49.87, "unit": "%"}]}, {"molecule": "COc1ccc2c(c1)c(CC(=O)Oc1ccc3ccc(=O)oc3c1)c(C)n2C(=O)c1ccc(Cl)cc1", "values": [{"measurement": "Activity", "setting": "Rattus norvegicus [29]", "result": 50.27, "unit": "%"}, {"measurement": "UI", "setting": "Rattus norvegicus [30]", "result": 1.28}, {"measurement": "Activity", "setting": "Rattus norvegicus [31]", "result": 48.06, "unit": "%"}, {"measurement": "inhibition in vivo at 13.35 mg/kg", "setting": "Mus musculus [32]", "result": 75.2, "unit": "%"}]}]}
